Legend:
Assay in all cases: relative viability (nuclei count vs DMSO), 5 days (fraction); higher = more cells survive
Bosutinib + Trametinib = compound: COc1cc(Nc2c(C#N)cnc3cc(OCCCN4CCN(C)CC4)c(OC)cc23)c(Cl)cc1Cl [Bosutinib] + CC(=O)Nc1cccc(-n2c(=O)n(C3CC3)c(=O)c3c(Nc4ccc(I)cc4F)n(C)c(=O)c(C)c32)c1 [Trametinib] (partner 0.02 µM)
Procedure, shortened: (§1)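 Relative viability is defined as nuclei in treated wells over nuclei in vehicle wells. Duplicate plates were run and medians reported. Lung cancer cell lines in 1536-well plates were dosed by pin tool one day after seeding, with one drug or with a fixed anchor-drug dose plus five library-drug doses (not always all listed) in √10 steps, and nuclei were counted after 5 days.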

Bosutinib + Navitoclax = compound: COc1cc(Nc2c(C#N)cnc3cc(OCCCN4CCN(C)CC4)c(OC)cc23)c(Cl)cc1Cl [Bosutinib] + CC1(C)CCC(c2ccc(Cl)cc2)=C(CN2CCN(c3ccc(C(=O)NS(=O)(=O)c4ccc(N[C@H](CCN5CCOCC5)CSc5ccccc5)c(S(=O)(=O)C(F)(F)F)c4)cc3)CC2)C1 [Navitoclax] (partner 0.5 µM)
Procedure, shortened: as §1

Bosutinib + OSI-027 = compound: COc1cc(Nc2c(C#N)cnc3cc(OCCCN4CCN(C)CC4)c(OC)cc23)c(Cl)cc1Cl [Bosutinib] + COc1cccc2cc(-c3nc([C@H]4CC[C@H](C(=O)O)CC4)n4ncnc(N)c34)[nH]c12 [OSI-027] (partner 0.5 µM)
Procedure, shortened: as §1

Bosutinib + Tozasertib = compound: COc1cc(Nc2c(C#N)cnc3cc(OCCCN4CCN(C)CC4)c(OC)cc23)c(Cl)cc1Cl [Bosutinib] + Cc1cc(Nc2cc(N3CCN(C)CC3)nc(Sc3ccc(NC(=O)C4CC4)cc3)n2)n[nH]1 [Tozasertib] (partner 0.1 µM)
Procedure, shortened: as §1

Bosutinib + Olaparib = compound: COc1cc(Nc2c(C#N)cnc3cc(OCCCN4CCN(C)CC4)c(OC)cc23)c(Cl)cc1Cl [Bosutinib] + O=C(c1cc(Cc2n[nH]c(=O)c3ccccc23)ccc1F)N1CCN(C(=O)C2CC2)CC1 [Olaparib] (partner 8 µM)
Procedure, shortened: as §1

Row | Cell Line | relative viability (Bosutinib + Trametinib; first compound 0.01 µM) | relative viability (Bosutinib + Trametinib; first compound 0.03162 µM) | relative viability (Bosutinib + Trametinib; first compound 0.1 µM) | relative viability (Bosutinib + Trametinib; first compound 1 µM) | relative viability (Bosutinib + Navitoclax; first compound 0.01 µM) | relative viability (Bosutinib + Navitoclax; first compound 0.03162 µM) | relative viability (Bosutinib + Navitoclax; first compound 0.1 µM) | relative viability (Bosutinib + Navitoclax; first compound 1 µM) | relative viability (Bosutinib + OSI-027; first compound 0.01 µM) | relative viability (Bosutinib + OSI-027; first compound 0.03162 µM) | relative viability (Bosutinib + OSI-027; first compound 0.1 µM) | relative viability (Bosutinib + OSI-027; first compound 1 µM) | relative viability (Bosutinib + Tozasertib; first compound 0.01 µM) | relative viability (Bosutinib + Tozasertib; first compound 0.03162 µM) | relative viability (Bosutinib + Tozasertib; first compound 0.1 µM) | relative viability (Bosutinib + Tozasertib; first compound 1 µM) | relative viability (Bosutinib + Olaparib; first compound 0.01 µM) | relative viability (Bosutinib + Olaparib; first compound 0.03162 µM) | relative viability (Bosutinib + Olaparib; first compound 0.1 µM) | relative viability (Bosutinib + Olaparib; first compound 1 µM)
1 | NCI-H1993 | 0.461 | 0.513 | 0.579 | 0.538 | 0.871 | 0.968 | 0.957 | 0.742 | 0.54 | 0.541 | 0.539 | 0.469 | 0.549 | 0.538 | 0.564 | 0.496 | 0.988 | 0.996 | 1.04 | 1.01
2 | NCI-H2009 | 0.276 | 0.344 | 0.27 | 0.166 | 1.22 | 1.2 | 1.21 | 1.08 | 0.681 | 0.799 | 0.746 | 0.522 | 0.732 | 0.82 | 0.73 | 0.572 | 0.708 | 0.709 | 0.696 | 0.575
3 | NCI-H2023 | 0.647 | 0.474 | 0.537 | 0.434 | 1 | 1.01 | 1.03 | 0.92 | 0.477 | 0.429 | 0.377 | 0.362 | 0.295 | 0.462 | 0.399 | 0.233 | 0.493 | 0.427 | 0.461 | 0.423
4 | NCI-H2085 | 0.564 | 0.467 | 0.54 | 0.5 | 1.14 | 1.13 | 1.11 | 1.2 | 0.741 | 0.781 | 0.726 | 0.462 | 0.782 | 0.692 | 0.765 | 0.738 | 0.717 | 0.72 | 0.709 | 0.89
5 | NCI-H2087 | 0.156 | 0.218 | 0.228 | 0.223 | 0.905 | 0.926 | 0.972 | 1.04 | 0.685 | 0.701 | 0.727 | 0.727 | 0.293 | 0.227 | 0.222 | 0.271 | 0.663 | 0.599 | 0.749 | 0.649
6 | NCI-H2126 | 0.528 | 0.546 | 0.559 | 0.536 | 0.797 | 0.904 | 0.85 | 0.776 | 0.678 | 0.784 | 0.753 | 0.688 | 0.823 | 0.811 | 0.828 | 0.763 | 0.892 | 0.885 | 0.916 | 0.936
7 | NCI-H2170 | 0.93 | 0.896 | 0.948 | 0.946 | 0.527 | 0.67 | 0.702 | 0.468 | 0.7 | 0.684 | 0.732 | 0.654 | 0.749 | 0.758 | 0.683 | 0.632 | 0.529 | 0.571 | 0.539 | 0.499
8 | NCI-H2228 | 0.54 | 0.599 | 0.494 | 0.355 | 0.84 | – | 1.03 | 0.732 | 0.489 | 0.533 | 0.577 | 0.609 | 0.313 | 0.319 | 0.306 | 0.287 | 0.654 | 0.671 | 0.468 | 0.735
